These results are taken from publication PMC5635289, “Differential Effects of Angelicin Analogues on NF-κB Activity and IL-8 Gene Expression in Cystic Fibrosis IB3-1 Cells” (Mediators of Inflammation, 2017).

In general, inhibition refers to the change of the read-out against control, counted positive when it falls. A high value points to a strong effect. As a reminder, the IC50 is the concentration that inhibits the measured activity by half.

Test [1] deals with T1, NF-κB p50 (Homo sapiens, UniProt P19838).
T1 construct: This assay was performed using purified NF-κB p50; purchased Promega
T1 sequence (P19838 1-433 limits assumed): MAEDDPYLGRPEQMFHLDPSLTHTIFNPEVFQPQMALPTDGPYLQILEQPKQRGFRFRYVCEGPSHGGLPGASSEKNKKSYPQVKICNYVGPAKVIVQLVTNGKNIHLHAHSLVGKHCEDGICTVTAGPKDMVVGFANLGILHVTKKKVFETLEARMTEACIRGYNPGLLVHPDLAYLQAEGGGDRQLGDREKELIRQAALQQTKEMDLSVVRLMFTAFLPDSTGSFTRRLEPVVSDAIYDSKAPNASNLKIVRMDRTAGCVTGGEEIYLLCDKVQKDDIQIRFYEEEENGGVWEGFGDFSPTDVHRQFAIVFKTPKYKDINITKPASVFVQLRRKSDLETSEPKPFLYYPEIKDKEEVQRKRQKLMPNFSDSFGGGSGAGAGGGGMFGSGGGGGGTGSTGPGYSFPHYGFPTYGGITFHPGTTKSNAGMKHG
Description: EMSA, inhibition of NF-κB/DNA interactions. To be noted: for Inhibition of NF-κB/DNA complex (MIC): NF-κB p50 and 32P-labeled NF-κB oligonucleotide, MIC = minimal inhibitory concentration, 12.5 μM was the lowest concentration used. Format: binding. On the procedure:
Electrophoretic mobility shift assays were performed using double-stranded ^32P-labeled oligonucleotides as target DNA. Binding reactions were set up as previously described in binding buffer (10% glycerol, 0.05% NP-40, 10 mM Tris-HCl pH 7.5, 50 mM NaCl, 0.5 mM DTT, and 10 mM MgCl2), in the presence of 0.1 μl/20 μl of NF-κB p50 (50 gsu) (Promega, Madison, WI, USA) and 0.25 ng of labeled oligonucleotide, in a total volume of 20 μl. After 30 min binding at room temperature, samples were electrophoresed at constant voltage (200 V for 30 min) through a low ionic strength (0.25 TBE buffer) (1 TBE/40.089 M Tris-borate, 0.002 M EDTA) on 6% polyacrylamide gels until the tracking dye (bromophenol blue) reached the bottom of a 16 cm slab. Gels were dried and exposed for autoradiography with intensifying screens at […]. In these experiments, DNA/protein complexes migrate through the gel with slower efficiency. In studies on the inhibitors of protein/DNA interactions, addition of the reagents was as follows: (i) nuclear factors, (ii) active principles, (iii) binding buffer, and (iv) labeled oligonucleotides mimicking the binding sites for TF to be modulated. The nucleotide sequence of double-stranded target DNA utilized in these experiments was 5′-CGC TGG GGA CTT TCC ACG G-3′ (sense strand, NF-κB). The synthetic oligonucleotides utilized in this study were purchased from Sigma Genosys (Sigma Genosys, Cambs, UK). To calculate the effective concentrations, three different autoradiograms obtained from different time exposures were scanned and compared to control EMSA performed without addition of angelicin analogues (two independent experiments were performed).
The effects of TMA derivatives on NF-κB- (nuclear factor-kappaB-) mediated induction of proinflammatory genes was verified first in vitro by electrophoretic mobility shift assay (EMSA) with the aim to verify and quantify the possible inhibition of NF-κB/DNA interactions. This assay was performed using purified NF-κB p50 and ^32P-labeled target NF-κB double-stranded oligonucleotide mimicking the NF-κB consensus sequence present within the IL-8 gene promoter.

Test [2] relates to IL-8 mRNA. The test can be described thus: RT-qPCR quantification of IL-8 mRNA in TNF-α-induced IB3-1 cells. The test is classed as cell-based, human. Particulars: for inhibition at 1 µM / inhibition at 10 µM: Homo sapiens, IB3-1, 24 h, TNF-α-induced IB3-1 cells, RT-qPCR, na = not active at the used concentrations; for inhibition at 1 µM: 1 μM compound; for inhibition at 10 µM: 10 μM compound; for Inhibition of IL-8 expression (range given): IB3-1 cells, low concentrations (1–10 μM), concentration not specified per value. On the procedure: Monolayers of 60% confluent IB3-1 cells were seeded in 6- or 12-well plates in LHC-8 medium in the presence of 5% FBS. After 24 h, pure derivatives were added, 5 h before stimulation with TNF-α 80 ng/ml (ORF Genetics, Kopavogur, Iceland), and incubated for a further 24 h. Total RNA was extracted using TRIzol Reagent (Sigma-Aldrich, St. Louis, MO) following the manufacturer's instructions. Reverse transcription (RT) was performed using Reverse Transcription System kit (Promega, Madison, WI): 1 μg of total RNA was reverse transcribed in the presence of 5 mM MgCl2, 1X reverse transcription buffer (10 mM Tris-HCl, 50 mM KCl, and 0.1% Triton X-100), 1 mM each dNTPs, 20 U recombinant Rnasin Ribonuclease Inhibitor, 15 U AMV Reverse Transcriptase, and 0.5 μg oligo(dT)15 primers in a total volume of 20 μl for 10 min at 70°C and 60 min at 42°C. The resulting cDNA was quantified by relative quantitative real-time PCR (real-time qPCR). For real-time qPCR, 1 μl of cDNA was used for each SYBR Green reaction to quantify the relative expression of IL-8. Each 25 μl of total reaction volume contained 1 μl of cDNA, 10 pmol of primers, 1 iQTM SYBR Green Supermix (Bio-Rad Laboratories Inc., Hercules, CA). Real-time PCRs were performed for a total of 40 cycles (denaturation, 95°C for 10 s; annealing, 68°C for 30 s for IL-8, 65°C for 30 s for IL-6; elongation, 72°C for 60 s) using an iCycler IQ5 (Bio-Rad Laboratories Inc., Hercules, CA). Primer sequences were as follows: IL-8 forward: 5′-GTGCAGTTTTGCCAAGGAGT-3′ and IL-8 reverse: 5′-TTATGAATTCTCAGCCCTCTTCAAAAACTTCTC-3′. The relative proportions of each amplified template were determined utilizing the threshold cycle (CT) value for each performed PCR. The DDCt method was used to compare gene expression data. Each sample was quantified in duplicate. Changes in mRNA expression level were calculated following normalization with the GAPDH calibrator gene (housekeeping gene) and expressed as fold change over untreated samples [24]. Duplicates of negative controls (no template cDNA) were also run with every experimental plate to assess specificity and indicate potential contamination.
With the aim to study the effective anti-inflammatory properties of these new psoralen derivatives, we decided to further characterize the TMA derivatives for their potential activities on the expression of IL-8 gene, known to be involved in the lung inflammatory process in CF. […] More specifically, we were first interested in identifying compounds with low antiproliferative activity, but effective in downmodulating inflammatory gene expression without achieving a full suppression of these genes. We therefore employed IB3-1 cystic fibrosis cells, incubated for 5 h with two concentrations (1 μM and 10 μM) of selected compounds, and then treated with TNF-α ([…]). In the IB3-1 cystic fibrosis cellular model, NF-κB-dependent genes, including the gene encoding for the proinflammatory protein IL-8, generally are activated following infection with P. aeruginosa or treatment with TNF-α or IL-1β [26, 28, 31]. This feature is very important in the pathophysiology of CF, since several clinical complications are caused by exacerbation of this inflammatory response. After 1 day of incubation, cellular RNA was isolated for RT-qPCR analysis. All the TMA analogues found to be active in inhibiting NF-κB/DNA interactions were analyzed for their effects on inhibition of TNF-α-induced accumulation of IL-8 mRNA.

Test [3] concerns IB3-1 cells. Description: Cell proliferation assay on IB3-1 cells. Format: cell-based. To be noted: Homo sapiens, cell number/ml after 48 h of treatment. On the procedure: Monolayers of 60% confluent IB3-1 cells were seeded in 24- or 12-well plates in LHC-8 medium in the presence of 5% FBS. After 24 h, TMA derivatives were added at serial dilutions and incubated for further 2-3 days. The effects of compounds (TMA derivatives) on the cell proliferation were analyzed as elsewhere described. A first analysis was performed with serial dilutions to obtain 50 μM, 200 μM, and 800 μM solutions. In order to determine IC50 values, the following concentrations were used 12.5, 25, 50, 100, 200, and 800 μM. In order to prepare the cells for counting, they were washed with PBS 1X and detached with trypsin/EDTA. Cells were suspended in physiological solution and counted with a Z2 Coulter Counter (Coulter Electronics, Hialeah, FL, USA). The cell number/ml was determined as IC50 after 2 days of culture, when untreated cells are in log phase of cell growth.
In order to obtain preliminary information on the biological properties of TMA derivatives, their effects on cell growth were examined on IB3-1 cell line, excellent biological model to study new potential anti-inflammatory molecules. The use of this cell line to study the expression of proinflammatory molecules under a variety of stimuli is well established. Monolayers of 60% confluent IB3-1 cells were seeded in 12-well plate in LHC-8 medium with 5% FBS. After 24 h, compounds were added at different concentrations and the cell number/ml was determined after further 48 h of culture.

The target in test [4] is T1, NF-κB p50. More on the design: method as in PMID 21148790. To be noted: previous studies; cited from earlier work.

Take `O=c1cc(CO)c2ccc3sccc3c2o1` [Compound 16]: in test [1], the “Inhibition of NF-κB/DNA complex (MIC)” value was in the range of 25 to 50 µM. In test [2], this molecule displayed an inhibition at 1 µM of 18% and an inhibition at 10 µM of 21%. Besides, the IC50 in test [3] was greater than 800 µM.
For `Cc1cc(=O)oc2c1ccc1oc(CN)cc12` [Compound 26], the “Inhibition of NF-κB/DNA complex (MIC)” value in test [1] lay in the range of 50 to 100 µM. Moreover, in test [2], testing at 1 µM gave an inhibition of 55%, the inhibition at 10 µM was 83% and the “Inhibition of IL-8 expression (range given)” value (“Inhibition of IL-8 expression” for short) is listed as 52–83%. In test [3], the IC50 is 90.8 µM.
Take `Cc1oc2c(cc(C)c3occ(C)c32)c(=O)c1C` [Compound 27]: in test [1], the “Inhibition of NF-κB/DNA complex (MIC)” value is reported as <12.5 (^∗) μM. The same molecule showed an inhibition at 1 µM in test [2] of 16%. This molecule also yielded an IC50 in test [3] greater than 800 µM.
Consider `Cc1c(C)c2cc(C)c3occc3c2oc1=O` [Compound 28], for which the “Inhibition of NF-κB/DNA complex (MIC)” value in test [1] was in the range of 12.5 to 25 µM. Besides, in test [2], at 1 µM the inhibition was 21% and the inhibition at 10 µM amounted to 36%. This molecule also yielded an IC50 in test [3] greater than 800 µM.
For the molecule `Cc1coc2c1c1occ(C)c1c1oc(=O)cc(C)c21` [Compound 29], the “Inhibition of NF-κB/DNA complex (MIC)” value in test [1] is reported as <12.5 (^∗) μM. Further, testing at 10 µM in test [2] gave an inhibition of 12%. Besides, the IC50 in test [3] is greater than 800 µM.
On to `Cc1cc2c(o1)c1cc(C)oc1c1c(C)cc(=O)oc21` [Compound 30], for which, in test [1], the “Inhibition of NF-κB/DNA complex (MIC)” value was in the range of 12.5 to 25 µM. The inhibition at 1 µM in test [2] was 10%. For the same molecule, in test [3], the IC50 was greater than 800 µM.
For `Cc1coc2c1c(C)cc1oc(=O)cc(C)c12` [Compound 32], the “Inhibition of NF-κB/DNA complex (MIC)” value in test [1] was <12.5 (^∗) μM. In addition, in test [2], at 1 µM the inhibition was 73% and the inhibition at 10 µM amounted to 52%. This molecule showed an IC50 in test [3] greater than 800 µM.
As to `Cc1cc2c(C)cc3oc(=O)cc(C)c3c2o1` [Compound 33], the “Inhibition of NF-κB/DNA complex (MIC)” value in test [1] was in the range of 12.5 to 25 µM. In addition, in test [2], 1 µM produced 66% inhibition, the inhibition at 10 µM came to 67% and the “Inhibition of IL-8 expression” value is reported as 52–83%. This molecule displayed an IC50 in test [3] greater than 800 µM.
Take `Cc1oc2c(c(C)cc3oc(=O)cc(C)c32)c1C` [Compound 34]: the “Inhibition of NF-κB/DNA complex (MIC)” value in test [1] is recorded as <12.5 (^∗) μM. In test [2], this molecule gave an inhibition at 1 µM of 68% and an inhibition at 10 µM of 47%. The molecule also displayed an IC50 in test [3] greater than 800 µM.
For the molecule `Cc1cc2c(C)cc(=O)oc2c2c1OCC=C2` [Compound 35], the “Inhibition of NF-κB/DNA complex (MIC)” value in test [1] lay in the range of 25 to 50 µM. In test [2], this molecule had an inhibition at 1 µM of 56% and an inhibition at 10 µM of 37%. In addition, 137 µM corresponded to half-maximal inhibition in test [3] (IC50).
With `Cc1cc2oc(=O)cc(C)c2c2c1C=CCO2` [Compound 36], the “Inhibition of NF-κB/DNA complex (MIC)” value in test [1] was in the range of 12.5 to 25 µM. For the same molecule, in test [2], at 1 µM the inhibition was 77% and the inhibition at 10 µM was 74%. Moreover, the IC50 in test [3] is greater than 800 µM.
`C=CCc1c(O)c(C)cc2c(CO)cc(=O)oc12` [Compound 38]: the “Inhibition of NF-κB/DNA complex (MIC)” value in test [1] was determined as 25 µM. In addition, in test [2], the inhibition at 1 µM was 36%, 10 µM produced 81% inhibition and the “Inhibition of IL-8 expression” value is recorded as 52–83%. The molecule also had an IC50 in test [3] of 506 µM.
`Cc1cc(=O)oc2c1cc(C)c1occ(C)c12` [TMA, 4,6,4′-trimethylangelicin, reference compound]: the “Effect on NF-κB/DNA interactions at 100 μM” value in test [1] (100 μM compound) is recorded as “able to suppress NF-κB/DNA interactions”. Besides, the “Inhibition of NF-κB/DNA complex (MIC)” value in test [1] is “higher than 20 μM”. This molecule also returned an IC50 in test [3] of 185 ± 30 µM. For the same molecule, the “Concentration inhibiting NF-κB/DNA interactions in EMSA” value in test [4] is 100 µM.
